Measurements: patent US20240124467A1, “FUSED PYRIMIDINE COMPOUNDS AS INHIBITORS OF MENIN-MLL INTERACTION” (Biomea Fusion, Inc., priority 2020, published 2024)
Like-named read-outs stand apart in the source and are kept apart here.

Tests used:
Type in all cases: cell-based
[1] = tested on: K-562; experiment: Cell proliferation inhibition (CellTiter-Glo), K-562 cells; details: Homo sapiens, K-562 (BCR-ABL)
Summary of the method: (§1)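 Leukemia lines in RPMI-1640/10% FBS at 37° C. were exposed in duplicate to seven compound concentrations (5.00×10^−6 to 6.86×10^−9 M), with 0.2% DMSO as 100% proliferation. At day 4 cells were diluted 1:4 in fresh medium containing compound. Viability was read by CellTiter-Glo luminescence at day 4 and day 7.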

[2] = tested on: MOLM-13; experiment: Cell proliferation inhibition (CellTiter-Glo), MOLM-13 cells; details: Homo sapiens, MOLM-13 (MLL-AF9)
Summary of the method: as §1

[3] = tested on: MV4-11; experiment: Cell proliferation inhibition (CellTiter-Glo), MV4-11 cells; details: Homo sapiens, MV4-11 (MLL-AF4)
Summary of the method: as §1

[4] = tested on: OCI-AML3; experiment: Cell proliferation inhibition (CellTiter-Glo), OCI-AML3 cells; details: Homo sapiens
Description: (§2) The present example evaluates the ability of compounds described herein, inhibitors of Menin/MLL interaction, to inhibit cell proliferation. The proliferation inhibitory effect was investigated in human MLL-leukemia cells selected on the bases of MLL fusion proteins and listed in the table below.
(§3) ATP is present in all metabolically active cells and is considered as a marker for cell viability and proliferation. The metabolic cell activity was determined using the CellTiter-Glo kit from Promega, an ATP monitoring system based on the production of luminescence by the reaction of ATP with added UltraGlo® recombinant luciferase (Kawano et al., 2016, PLOS One, 8:11(7):e0158888), according to the supplier's experimental recommendations. The assay is based on a 96 well plate format. All experiments were carried out in duplicate in one test occasion.
(§4) Test items were dissolved at 20 mM in DMSO with purity ≥99.9% (Sigma catalog no. D8418) and stored at −20° C. Cells were maintained in RPMI-1640 medium (Invitrogen catalog no. 618700) supplemented with 10% of Heat Inactivated FBS (Invitrogen catalog no. 10500) and 1% Pen-Strep (Invitrogen catalog no. 15140) and cultured at 37° C. in a humidified incubator with 5% CO2. Cell lines were grown in suspension and the cell density was maintained in a range of 5×10^4-1×10^6 viable cells/ml where possible. Cells were pelleted at 130 g×5 min.
(§5) Serial dilutions of compounds 1 to 3 in DMSO 100% were prepared starting from a 2.5 mM solutions (prepared by diluting 1:8 the 20 mM stock solution) to generate a 7 point concentration response curve (CRC). Seven concentrations of test compounds (e.g., 5.00×10^−6-1.67×10^−6-5.56×10^−7-1.85×10^−7-6.17×10^−8-2.06×10^−8-6.86×10^−9 M) were assessed in duplicate in an individual test occasion in parallel in the selected cell lines. KO-539 was used as a reference compound and tested in duplicate at seven similar concentrations. 100% of proliferation was represented by the untreated cells (0.2% DMSO).
(§6) Cell proliferation inhibition was monitored at both the following end points: Day 4 (T4) and Day 7 (T7). For the appropriate cell density during the exponential cell growth and re-supply with fresh compound solution at T4, cells were diluted (1:4) with fresh medium containing the compound concentration (1×).
(§7) For each plate to test, one 0.4 μL copy plate and four 0.3 μL copy plates were stamped into 96-well plates not treated for cell adhesion (Sarstedt—cat. no. 82.1581.001) by acoustic liquid handling (Echo) at a concentration which was 500 fold the final assay concentration. Stamped plates were stored at −20° C.
(§8) On Day 0, the day of the experiment cell line suspensions were counted by Cell Viability Analyser, Vi-CELL (Beckman Coulter AY15292), and diluted with fresh medium to obtain the following cell densities: K-562 500 c/ml, MOLM-13 1,000 c/ml, MV4-11 10,000 c/ml, OCI-AML-3 500 c/ml, and U-937 500-1,000 c/ml. 200 μL/well and 150 μL/well of cell suspension were added into the 0.4 μL/well and 0.3 μL/well compound plates, respectively. Cell plate containing 200 μL/well suspension were incubated at 37° C. in a humidified incubator with 5% CO2. From each well of the 150 μL/well cell assay plate, 100 μL were harvested and transferred into a 96-well Optiplate (Perkin Elmer, cat. no. 6005290). Cell viability was measured as described below.
(§9) On Day 4, 150p/well of fresh medium was added into a new 0.3 μL/well copy compound plates. From each well of the 200 μL/well cell assay plate, 100 μL was sampled for the cell viability measurement as described below. 50p was harvested and added to the 150p/well compound plate prepared as described in the first point to dilute 1:4 the cell suspension. The cell assay plate diluted and containing 200 μL/well suspension was incubated at 37° C. in a humidified incubator with 5% CO2.
(§10) On Day 4, 150p/well of fresh medium was added into a new 0.3 μL/well copy compound plates. […]

[5] = tested on: U-937; experiment: Cell proliferation inhibition (CellTiter-Glo), U-937 cells; details: Homo sapiens, U-937 (MLL-wt), Table 3
Description: as §2, §3, §4, §5, §6, §7, §8, §9, §10

[6] = K562, 96 h, 4 d, Table 3, read-out: K-562 IC50 μM 4 d
[7] = K562, 168 h, 7 d, Table 3, read-out: K-562 IC50 μM 7 d
[8] = 96 h, 4 d, Table 3, read-out: MOLM13 μM 4 d
[9] = 168 h, 7 d, Table 3, read-out: MOLM13 μM 7 d
[10] = 96 h, 4 d, Table 3, read-out: MV4-11 IC50 μM 4 d
[11] = 168 h, 7 d, Table 3, read-out: MV4-11 IC50 μM 7 d
[12] = OCI-AML-3, 96 h, 4 d, Table 3, read-out: OCI-AML3 IC50 μM 4 d
[13] = OCI-AML-3, 168 h, 7 d, Table 3, read-out: OCI-AML3 IC50 μM 7 d
[14] = 96 h, 4 d, read-out: U-937 IC50 μM 4 d
[15] = 168 h, 7 d, read-out: U-937 IC50 μM 7 d
[16] = K562, 96 h, Day 4, read-out: K-562 IC50 μM (Day 4)
[17] = K562, 168 h, Day 7, read-out: K-562 IC50 μM (Day 7)*
[18] = 96 h, Day 4, read-out: MOLM-13 Day IC50 μM (Day 4)*
[19] = 168 h, Day 7, read-out: MOLM-13 Day IC50 μM (Day 7)*
[20] = 96 h, Day 4, read-out: MV-4:11 IC50 μM (Day 4)*
[21] = 168 h, Day 7, read-out: MV-4:11 IC50 μM (Day 7)*

Structure (SMILES): C=CC(=O)N(C)[C@@H]1CCCN(Cc2ccnc(C(=O)Nc3ccc(-c4cc5c(N6CCOCC6)ncnc5[nH]4)cc3)c2)C1 [Compound B0700-301, (R)-4-((3-(N-methylacrylamido)piperidin-1-yl)methyl)-N-(4-(4-morpholino-7H-pyrrolo[2,3-d]pyrimidin-6-yl)phenyl)picolinamide]
- IC50 [1, 6]: 0.263 µM
- IC50 [1, 7]: 0.191 µM
- IC50 [2, 8]: 0.056 µM
- IC50 [2, 9]: 0.044 µM
- IC50 [3, 10]: 0.085 µM
- IC50 [3, 11]: 0.069 µM
- IC50 [4, 12]: 0.066 µM
- IC50 [4, 13]: 0.028 µM
- IC50 [5, 14]: 0.105 µM
- IC50 [5, 15]: 0.026 µM

Structure (SMILES): C=CC(=O)N1CCCC(Nc2ccnc(C(=O)Nc3ccc(-c4cc5c(N6CCOCC6)ncnc5[nH]4)cc3)c2)C1 (stereo not shown) [Compound B0700-302, 4-((1-acryloylpiperidin-3-yl)amino)-N-(4-(4-morpholino-7H-pyrrolo[2,3-d]pyrimidin-6-yl)phenyl)picolinamide]
- IC50 [1, 6]: 0.17 µM
- IC50 [1, 7]: 0.138 µM
- IC50 [2, 8]: 0.063 µM
- IC50 [2, 9]: 0.05 µM
- IC50 [3, 10]: 0.098 µM
- IC50 [3, 11]: 0.089 µM
- IC50 [4, 12]: 0.043 µM
- IC50 [4, 13]: 0.044 µM
- IC50 [5, 14]: 0.072 µM
- IC50 [5, 15]: 0.037 µM

Structure (SMILES): C=CC(=O)N1CCN(CCc2ccnc(C(=O)Nc3ccc(-c4cc5c(N6CCOCC6)ncnc5[nH]4)cc3)c2)CC1 [Compound B0700-303, 4-(2-(4-acryloylpiperazin-1-yl)ethyl)-N-(4-(4-morpholino-7H-pyrrolo[2,3-d]pyrimidin-6-yl)phenyl)picolinamide]
- IC50 [1, 6]: 0.085 µM
- IC50 [1, 7]: 0.028 µM
- IC50 [2, 8]: 0.049 µM
- IC50 [2, 9]: 0.034 µM
- IC50 [3, 10]: 0.051 µM
- IC50 [3, 11]: 0.05 µM
- IC50 [4, 12]: 0.076 µM
- IC50 [4, 13]: 0.05 µM
- IC50 [5, 14]: 0.043 µM
- IC50 [5, 15]: 0.022 µM

Structure (SMILES): C=CC(=O)N[C@@H]1CCCN(Cc2ccnc(C(=O)NC3CCN(c4nc5c(N6CCOCC6)ncnc5[nH]4)CC3)c2)C1 [Compound B0700-308, (R)-4-((3-acrylamidopiperidin-1-yl)methyl)-N-(1-(6-morpholino-9H-purin-8-yl)piperidin-4-yl)picolinamide]
- IC50 [1, 6]: > 5 µM
- IC50 [1, 7]: > 5 µM
- IC50 [2, 8]: > 5 µM
- IC50 [2, 9]: > 5 µM
- IC50 [3, 10]: > 5 µM
- IC50 [3, 11]: > 5 µM
- IC50 [4, 12]: > 5 µM
- IC50 [4, 13]: > 5 µM
- IC50 [5, 14]: > 5 µM
- IC50 [5, 15]: > 5 µM

Structure (SMILES): O=C(/C=C/CN1CC(F)C1)Nc1ccc(CC(=O)Nc2ccc(-c3cc4c(N5CCOCC5)ncnc4[nH]3)cc2)cc1 [Compound B0700-312, (E)-4-(3-fluoroazetidin-1-yl)-N-(4-(2-((4-(4-morpholino-7H-pyrrolo[2,3-d]pyrimidin-6-yl)phenyl)amino)-2-oxoethyl)phenyl)but-2-enamide]
- IC50 [1, 6]: > 5 µM
- IC50 [1, 7]: > 5 µM
- IC50 [2, 8]: 2.34 µM
- IC50 [2, 9]: 0.537 µM
- IC50 [3, 10]: 1.62 µM
- IC50 [3, 11]: 1 µM
- IC50 [4, 12]: > 5 µM
- IC50 [4, 13]: 1.95 µM
- IC50 [5, 14]: > 5 µM
- IC50 [5, 15]: > 5 µM

Structure (SMILES): C=CC(=O)Nc1ccc(CC(=O)Nc2ccc(-c3cc4c(C)ncnc4[nH]3)cc2)cc1 [Compound B0700-313, N-(4-(2-((4-(4-methyl-7H-pyrrolo[2,3-d]pyrimidin-6-yl)phenyl)amino)-2-oxoethyl)phenyl)acrylamide]
- IC50 [1, 6]: > 5 µM
- IC50 [1, 7]: 0.288 µM
- IC50 [2, 8]: > 5 µM
- IC50 [2, 9]: 3.31 µM
- IC50 [3, 10]: > 5 µM
- IC50 [3, 11]: > 5 µM
- IC50 [4, 12]: > 5 µM
- IC50 [4, 13]: 0.407 µM
- IC50 [5, 14]: > 5 µM
- IC50 [5, 15]: 1.26 µM

Structure (SMILES): C=CC(=O)Nc1ccc(CC(=O)Nc2ccc(-c3cc4c(N5CCOCC5)ncnc4[nH]3)cc2)nc1 [Compound B0700-314, N-(6-(2-((4-(4-morpholino-7H-pyrrolo[2,3-d]pyrimidin-6-yl)phenyl)amino)-2-oxoethyl)pyridin-3-yl)acrylamide]
- IC50 [1, 6]: 0.55 µM
- IC50 [1, 7]: 0.468 µM
- IC50 [2, 8]: 0.191 µM
- IC50 [2, 9]: 0.178 µM
- IC50 [3, 10]: 0.145 µM
- IC50 [3, 11]: 0.129 µM
- IC50 [4, 12]: 0.145 µM
- IC50 [4, 13]: 0.095 µM
- IC50 [5, 14]: 0.288 µM
- IC50 [5, 15]: 0.158 µM

Structure (SMILES): C=CC(=O)N[C@H]1CCN(c2cccc(C(C)(C)C(=O)Nc3ccc(-c4cc5c(N6CCOCC6)ncnc5[nH]4)cc3)c2)C1 [Compound B0700-617, (S)—N-(1-(3-(2-methyl-1-((4-(4-morpholino-7H-pyrrolo[2,3-d]pyrimidin-6-yl)phenyl)amino)-1-oxopropan-2-yl)phenyl)pyrrolidin-3-yl)acrylamide]
- IC50 [1, 16]: 4.55 µM
- IC50 [1, 17]: 4.86 µM
- IC50 [2, 18]: 0.447 µM
- IC50 [2, 19]: 0.51 µM
- IC50 [3, 20]: 0.477 µM
- IC50 [3, 21]: 0.41 µM

Structure (SMILES): C=CC(=O)N[C@H]1CCN(c2cccc(CC(=O)Nc3ccc(-c4cc5c(N6CCOCC6)ncnc5[nH]4)cc3)c2)C1 [Compound B0700-618, (S)—N-(1-(3-(2-((4-(4-morpholino-7H-pyrrolo[2,3-d]pyrimidin-6-yl)phenyl)amino)-2-oxoethyl)phenyl)pyrrolidin-3-yl)acrylamide]
- IC50 [1, 16]: 8.83 µM
- IC50 [1, 17]: 10.1 µM
- IC50 [2, 18]: 1.27 µM
- IC50 [2, 19]: 1.47 µM
- IC50 [3, 20]: 0.786 µM
- IC50 [3, 21]: 0.78 µM

Structure (SMILES): C=CC(=O)N[C@@H]1CCCN(Cc2ccnc(C(=O)Nc3ccc(-c4cc5c(C67CCOCC6C7)ncnc5[nH]4)cc3)c2)C1 (stereo partly shown) [Compound B0700-706]
- IC50 [1, 16]: 1.48 µM
- IC50 [2, 18]: 0.54 µM
- IC50 [3, 20]: 0.47 µM
